From patent publication US20240409585A1, “MACROCYCLIC IMMUNOMODULATORS” (priority 2021, published 2024) come the findings set out here.

The structures appear in SMILES notation. Numbered stars: 1 amine (or outer) side, 2 acyl side, 3 side chain; on linkers, the order of the positions; unused ones are H or OH. Bridge positions count the residues as written; N and C are the ends. Square brackets hold non-standard residues; d marks the D form. Peptide text beside a SMILES is read from it. * marks the point of attachment. ξ: configuration not given here. X18 = O=C(O)COCCc1ccc(-c2ccc(C[C@H](N[*:1])C(=O)[*:2])cc2)cc1; Phe(3-CF3) = N[C@@H](Cc1cccc(C(F)(F)F)c1)C(=O)O; Phe(4-COOH) = N[C@@H](Cc1ccc(C(=O)O)cc1)C(=O)O; Bip = N[C@@H](Cc1ccc(-c2ccccc2)cc1)C(=O)O; Phe(3-CN) = N#Cc1cccc(C[C@H](N)C(=O)O)c1; Phe(3-Cl) = N[C@@H](Cc1cccc(Cl)c1)C(=O)O; Phe(3-F) = N[C@@H](Cc1cccc(F)c1)C(=O)O; Phe(3-Me) = Cc1cccc(C[C@H](N)C(=O)O)c1; Gly(cPent) = N[C@H](C(=O)O)C1CCCC1; Val(3-OH) = CC(C)(O)[C@H](N)C(=O)O; aIle = CC[C@@H](C)[C@H](N)C(=O)O; 3Pal = N[C@@H](Cc1cccnc1)C(=O)O; 4Pal = N[C@@H](Cc1ccncc1)C(=O)O; 2Thi = N[C@@H](Cc1cccs1)C(=O)O; Cha = N[C@@H](CC1CCCCC1)C(=O)O; Cit = NC(=O)NCCC[C@H](N)C(=O)O; Ile(3ξ) = CCC(C)[C@H](N)C(=O)O; Thr(3ξ) = CC(O)[C@H](N)C(=O)O; Carboxymethyl = O=C(O)C*; NMeA = CN[C@@H](C)C(=O)O; Orn = NCCC[C@H](N)C(=O)O; Dab = NCC[C@H](N)C(=O)O; Dap = NC[C@H](N)C(=O)O; ξV = CC(C)C(N)C(=O)O; ξC = NC(CS)C(=O)O

The target of this assay is T1, PE-labeled human PD-L1-Ig binding to Jurkat cell line over-expressing human PD-1 (Jurkat-PD-1) (Homo sapiens, UniProt Q15116).
T1 construct: expressed in transfected cells; host or cells: Jurkat
T1 sequence (Q15116 25-288): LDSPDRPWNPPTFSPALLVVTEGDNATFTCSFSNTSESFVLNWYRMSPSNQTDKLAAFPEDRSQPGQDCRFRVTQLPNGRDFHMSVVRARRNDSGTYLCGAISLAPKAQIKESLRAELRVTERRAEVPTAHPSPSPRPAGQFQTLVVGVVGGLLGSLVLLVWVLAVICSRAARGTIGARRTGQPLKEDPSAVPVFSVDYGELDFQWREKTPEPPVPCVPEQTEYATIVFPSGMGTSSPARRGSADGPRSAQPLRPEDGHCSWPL
Nature of the assay: Jurkat-PD-1 Cell Binding High-Content Screening Assay (CBA): Method 1. The following applies: Jurkat-hPD-1 cells, PE-labeled PD-L1-Ig 20 nM final; read-out: Jurkat HPDL1 PD1 IC50 (uM) (Method 1).

Regarding `CC(C)C[C@@H]1NC(=O)[C@H](CCN)NC(=O)[C@@H](CC(C)C)NC(=O)[C@H](C)N(C)C(=O)[C@H](CCCNC(=N)N)NC(=O)[C@H](Cc2ccc(-c3ccc(CCOCC(=O)O)cc3)cc2)NC(=O)[C@H](C(C)C)NC(=O)[C@H](Cc2c[nH]c3ccccc23)NC(=O)[C@H](CC(=O)O)NC(=O)[C@H](Cc2ccc(O)cc2)NC(=O)[C@H](CC(N)=O)NC(=O)CSC[C@@H](C(=O)N[C@@H](C)C(N)=O)NC(=O)[C@H]([C@@H](C)O)NC(=O)[C@H](C(C)C)NC1=O` [Compound 1210] ({CH2CO}-NYDWV[X18]R[NMeA][dL][Dab]LVTCA-NH2; thioether N-14), the IC50 (usually the concentration that gives 50% inhibition) turned out to be 0.88 µM.
For the molecule `CC(C)C[C@@H]1NC(=O)[C@H](CCN)NC(=O)[C@@H](CC(C)C)NC(=O)[C@H](C)N(C)C(=O)[C@H](Cc2cnc[nH]2)NC(=O)[C@H](Cc2ccc(-c3ccccc3)cc2)NC(=O)[C@H](C(C)C)NC(=O)[C@H](Cc2c[nH]c3ccccc23)NC(=O)[C@H](CC(=O)O)NC(=O)[C@H](Cc2cccc(Cl)c2)NC(=O)[C@H](CN)NC(=O)CSC[C@@H](C(=O)N[C@@H](C)C(N)=O)NC(=O)[C@H]([C@@H](C)O)NC(=O)[C@H](C(C)C)NC1=O` [Compound 1440] ({CH2CO}-[Dap][Phe(3-Cl)]DWV[Bip]H[NMeA][dL][Dab]LVTCA-NH2; thioether N-14), the IC50 came to 0.19 µM.
As to `CCC(C)[C@@H]1NC(=O)[C@H](Cc2ccc(-c3ccccc3)cc2)NC(=O)[C@H](C(C)C)NC(=O)[C@H](Cc2c[nH]c3ccccc23)NC(=O)[C@H](CC(=O)O)NC(=O)[C@H](Cc2ccc(O)cc2)NC(=O)[C@H](Cc2ccncc2)NC(=O)CSCC(C(=O)N[C@@H](CCCN)C(=O)O)NC(=O)[C@H](C(C)O)NC(=O)[C@H](C(C)C)NC(=O)[C@H](CC2CCCCC2)NC(=O)[C@H](CC(N)=O)NC(=O)[C@@H](CC(C)C)NC(=O)[C@H](C)N(C)C1=O` (stereo partly drawn) [Compound 2214] ({CH2CO}-[4Pal]YDWV[Bip][Ile(3ξ)][NMeA][dL]N[Cha]V[Thr(3ξ)][ξC][Orn]-OH; thioether N-14), the IC50 was 0.02 µM.
`CC(C)C[C@@H]1NC(=O)[C@H](Cc2c[nH]c3ccccc23)NC(=O)[C@H](CC(=O)O)NC(=O)[C@H](Cc2ccncc2)NC(=O)[C@H](CN)NC(=O)CSC[C@@H](C(=O)NCC(N)=O)NC[C@H](CO)NC(=O)[C@H](C(C)C)NC(=O)[C@H](CC2CCCCC2)NC(=O)[C@H](CC(N)=O)NC(=O)[C@@H](CC(C)C)NC(=O)[C@H](C)N(C)C(=O)[C@H](C(C)C)NC(=O)[C@H](Cc2ccc(-c3ccccc3)cc2)NC1=O` [Compound 1625]: the IC50 was determined as 0.01 µM.
The same measure for `CC(=O)NCCCC[C@@H]1NC(=O)[C@H](Cc2ccc(-c3ccccc3)cc2)NC(=O)[C@H](Cc2ccc(O)cc2)NC(=O)[C@H](Cc2cccc(C)c2)NC(=O)[C@H](CC(=O)O)NC(=O)[C@H](Cc2ccc(OCC(=O)O)cc2)NC(=O)[C@H](C(C)O)NC(=O)CSC[C@@H](C(=O)N[C@H](CC(N)=O)C(N)=O)NC(=O)[C@H](C(C)O)NC(=O)[C@H](C(C)C)NC(=O)[C@H](CC2CCCCC2)NC(=O)[C@H](CCN)NC(=O)[C@@H](CC(C)C)NC(=O)[C@H](C)N(C)C1=O` (stereo partly drawn) [Compound 2118] ({CH2CO}-[Thr(3ξ)]Y(Carboxymethyl)D[Phe(3-Me)]Y[Bip]K(Ac)[NMeA][dL][Dab][Cha]V[Thr(3ξ)]C[dN]-NH2; thioether N-14): 0.05 µM.
Take `CC(C)C[C@@H]1NC(=O)[C@H](Cc2c[nH]c3ccccc23)NC(=O)[C@H](CC(=O)O)NC(=O)[C@H](Cc2ccc(O)cc2)NC(=O)[C@H](Cc2ccccc2)NC(=O)CSC[C@@H](C(=O)NCC(N)=O)NC(=O)[C@H](CO)NC(=O)[C@H](C(C)C)NC(=O)[C@H](CC(C)C)NC(=O)[C@H](CCN)NC(=O)[C@@H](CC(C)C)NC(=O)[C@H](C)N(C)C(=O)[C@H](C(C)C)NC(=O)[C@H](Cc2ccc(-c3ccccc3)cc2)NC1=O` [Compound 1472] ({CH2CO}-FYDWL[Bip]V[NMeA][dL][Dab]LVSCG-NH2; thioether N-14): the IC50 came out at 0.01 µM.
The same measure for `CC(C)C[C@@H]1NC(=O)[C@H](Cc2c[nH]c3ccccc23)NC(=O)[C@H](CC(=O)O)NC(=O)[C@H](Cc2cccc(C(F)(F)F)c2)NC(=O)[C@H](Cc2ccccc2)NC(=O)CSC[C@@H](C(=O)N[C@@H](C)C(N)=O)NC(=O)[C@H](CO)NC(=O)[C@H](C(C)C)NC(=O)[C@H](CC(C)C)NC(=O)[C@H](CC(N)=O)NC(=O)[C@@H](C)NC(=O)[C@H](C)N(C)C(=O)[C@H](C(C)C)NC(=O)[C@H](Cc2ccc(-c3ccccc3)cc2)NC1=O` [Compound 1777] ({CH2CO}-F[Phe(3-CF3)]DWL[Bip]V[NMeA][dA]NLVSCA-NH2; thioether N-14): 0.06 µM; for `CC(C)C[C@@H]1NC(=O)[C@H](CCN)NC(=O)[C@@H](CC(C)C)NC(=O)[C@H](C)N(C)C(=O)[C@H](CCCNC(N)=O)NC(=O)[C@H](Cc2ccc(-c3ccccc3)cc2)NC(=O)[C@H](C(C)C)NC(=O)[C@H](Cc2c[nH]c3ccccc23)NC(=O)[C@H](CC(=O)O)NC(=O)[C@H](Cc2ccncc2)NC(=O)[C@H](CC(N)=O)NC(=O)CSC[C@@H](C(=O)N[C@@H](C)C(N)=O)NC(=O)[C@H]([C@@H](C)O)NC(=O)[C@H](C(C)C)NC1=O` [Compound 1320] ({CH2CO}-N[4Pal]DWV[Bip][Cit][NMeA][dL][Dab]LVTCA-NH2; thioether N-14): 0.02 µM; for `CC[C@@H](C)[C@@H]1NC(=O)[C@H](Cc2ccc(-c3ccccc3)cc2)NC(=O)[C@H](C2CCCC2)NC(=O)[C@H](Cc2c[nH]c3ccccc23)NC(=O)[C@H](CC(=O)O)NC(=O)[C@H](Cc2ccc(C(=O)O)cc2)NC(=O)[C@H](Cc2ccc(OCC(=O)O)cc2)NC(=O)CSC[C@@H](C(=O)N[C@@H](CCCCN)C(N)=O)NC(=O)[C@H](CO)NC(=O)C(C(C)C)NC(=O)[C@H](CC(C)C)NC(=O)[C@H](CC(N)=O)NC(=O)[C@@H](CC(C)C)NC(=O)[C@H](C)N(C)C1=O` (stereo partly drawn) [Compound 2103] ({CH2CO}-Y(Carboxymethyl)[Phe(4-COOH)]DW[Gly(cPent)][Bip][aIle][NMeA][dL]NL[ξV]SCK-NH2; thioether N-14): 0.04 µM.
In the case of `CCNC(=O)[C@H](CCN)NC(=O)[C@@H]1CSCC(=O)N[C@@H](Cc2cccs2)C(=O)N[C@@H](Cc2cccc(C#N)c2)C(=O)N[C@@H](CC(=O)O)C(=O)N[C@@H](Cc2cccc(C)c2)C(=O)N[C@@H](Cc2cccc(F)c2)C(=O)N[C@@H](Cc2ccc(-c3ccccc3)cc2)C(=O)N[C@@H](C(C)C)C(=O)N(C)[C@@H](C)C(=O)N[C@H](CC(C)C)C(=O)N[C@@H](CCN)C(=O)N[C@@H](CC2CCCCC2)C(=O)N[C@@H](C(C)(C)O)C(=O)N[C@@H](CO)C(=O)N1` [Compound 1840] ({CH2CO}-[2Thi][Phe(3-CN)]D[Phe(3-Me)][Phe(3-F)][Bip]V[NMeA][dL][Dab][Cha][Val(3-OH)]SC[Dab]-NHEt; thioether N-14), the IC50 is 0.05 µM.
Turning to `CC(C)C[C@@H]1NC(=O)[C@H](CCN)NC(=O)[C@@H](CC(C)C)NC(=O)[C@H](C)N(C)C(=O)[C@H](CCCNC(=N)N)NC(=O)[C@H](Cc2ccc(-c3ccccc3)cc2)NC(=O)[C@H](C(C)C)NC(=O)[C@H](Cc2c[nH]c3ccccc23)NC(=O)[C@H](CC(=O)O)NC(=O)[C@H](Cc2cnc[nH]2)NC(=O)[C@H](Cc2cccnc2)NC(=O)CSC[C@@H](C(=O)N[C@@H](C)C(N)=O)NC(=O)[C@H]([C@@H](C)O)NC(=O)[C@H](C(C)C)NC1=O` [Compound 1157] ({CH2CO}-[3Pal]HDWV[Bip]R[NMeA][dL][Dab]LVTCA-NH2; thioether N-14), the IC50 worked out at 0.11 µM.
